Like-named read-outs stand apart in the source and are kept apart here.
Experiments:
[1] = biological target: T1, human CD38 (Homo sapiens, UniProt P28907); assay: Competitive and slow-onset inhibition of CD38-catalyzed conversion of NGD+ to cGDPR (295 nm absorbance); assay type: biochemical; parameters: The soluble domain of human CD38 catalyzes the conversion of NAD^+ to cyclic-ADP-ribose; details: for Inhibition of CD38 conversion of NGD+ to cGDPR: even at millimolar concentrations of compound; for Ki: 19° C.
T1 sequence (P28907 43-300 limits assumed): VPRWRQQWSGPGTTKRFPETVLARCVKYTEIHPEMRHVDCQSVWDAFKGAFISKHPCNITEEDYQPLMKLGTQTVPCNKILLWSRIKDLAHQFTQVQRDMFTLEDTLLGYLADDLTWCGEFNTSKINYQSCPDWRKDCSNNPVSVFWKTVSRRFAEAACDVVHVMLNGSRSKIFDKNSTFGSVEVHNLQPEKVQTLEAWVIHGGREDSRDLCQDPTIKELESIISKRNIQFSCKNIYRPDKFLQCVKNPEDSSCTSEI
Description: Determination of Ki and kon by competitive method. To 1 mL solutions of 50 mM potassium phosphate pH 7.2 and 100 μM NGD^+ containing, 50, 25, 12.5, and 6.25 and 0 μM inhibitor 1 was added 2 μL of 7 μM CD38. Reaction progress upon initiation by enzyme addition was monitored by measurement of […] absorbance. The initial slopes were used to determine the Ki value, and all points of the experiment were fit to the equation A(t)=vt+(b−v)(1−exp(−kt))/k+A0 where k is the observed rate constant, b is the initial rate, v is the final rate and A0 is the initial absorbance was used to evaluate kon.
Determination of Competitive Inhibition by Initial Rates: The inhibitors 1-3 were evaluated for inhibition of CD38 enzymatic activity using a spectrophotometric assay. CD38 catalyzes the conversion of NGD^+ to cyclic-GDP ribose (cGDPR, Scheme 4) and product formation can be monitored by 295 nm absorbance measurement. […] A similar reaction containing 40 μM NGD^+ at several concentrations of 2 was also performed (FIG. 3).
Slow Phase Inhibition. […] This slow phase was not due to substrate depletion and was attributable to a kinetic process leading to progressive inhibition of the enzyme. The “slow-onset” absorbance curves could be fit using the equation At=vit+(vi−vf)(1−exp(−kt))/k+A0 where At is absorbance, vi is initial velocity, vf is final velocity, t is time in s, k is the rate of the slow onset process and A0 is absorbance of the sample at initial time. These fits are shown by the solid lines in FIG. 2 and FIG. 3. The rate constant for the slow phase could be obtained from the average value of k determined from the separate fits. The value of k for 1 was determined to be 0.0042±0.001 s^−1 and the value of k for 2 was determined to be 0.0083±0.002 s^−1. The parameter k is defined as kon in Scheme 5. [drawing 22]
Calculation of Total Inhibition. […] This equation is valid for slow onset behavior inhibitors and also mechanistic based inactivators of enzymes where a slow recovery of the enzyme from chemical inactivation is present.

[2] = biological target: T2, CD38 (Homo sapiens, UniProt P28907); details: comparison values for substrates; read-out: Km of substrate for CD38; cited from earlier work
T2 sequence (P28907 45-300 limits assumed): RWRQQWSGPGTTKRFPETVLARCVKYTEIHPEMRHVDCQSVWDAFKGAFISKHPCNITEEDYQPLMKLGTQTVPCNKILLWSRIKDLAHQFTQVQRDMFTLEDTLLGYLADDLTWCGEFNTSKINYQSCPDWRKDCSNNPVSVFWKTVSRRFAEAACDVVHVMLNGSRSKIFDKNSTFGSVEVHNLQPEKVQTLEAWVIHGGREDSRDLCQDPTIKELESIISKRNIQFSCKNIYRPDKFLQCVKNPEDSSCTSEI

[3] = biological target: T1, human CD38; assay: Radiochemical measurement of inhibitor binding (labeling of CD38 by [2'-3H] inhibitor, gel filtration and scintillation counting); parameters: The soluble domain of human CD38 catalyzes the conversion of NAD^+ to cyclic-ADP-ribose; details: 25° C.; 9 μM inhibitor, 1.2 μM CD38 monomer
Description: Radiochemical measurement of inhibitor binding. […] Inhibitor at 9 μM with specific radioactivity of 866 cpm/nmol, was incubated with 1.2 μM CD38 (monomer) in 1 mL 50 mM potassium phosphate (pH 7.5). The reactions were started by enzyme addition and quenched by freezing with a dry ice/acetone bath at 30, 60 90, 120, 250, 500, and 1000 s. Cooled (0° C.) gel filtration columns were used to separate protein with cooled (0° C.) 10 mM potassium phosphate as eluant. The frozen fraction were quickly thawed, applied to these columns and fractions collected in 1 mL volumes over the course of several minutes. Scintillation fluid (9 mL) was then added to each 1 mL fraction and samples counted. […] The observed radioactivity was fit using the equation A(t)=A0(1−exp(−kt))+B. where A0 is activity at reaction completion, k is the observed pseudo-first order rate constant and B is the activity of the blank.
Titration of Enzyme with [2′-^3H]Inhibitor. CD38 inactivation was accomplished using a radiolabeled inhibitor to assess inhibitor interactions with the enzyme independent from inhibition of the catalytic activity. This method allows the determination of the stoichiometry of covalent labeling, and detects cooperativity at multiple sites. […] (FIG. 8) within reasonable agreement with the rate constant for inactivation in kinetic assays of inhibition (kon=0.0042 s^−1 at 19° C.). […]

[4] = biological target: CD38; details: literature values (Sauve et al., 2000; Muller-Steffner et al., 1992); cited from earlier work
[5] = Solution hydrolysis (chemical stability); assay type: physicochemical
Description: Without being bound to any particular mechanism, it is believed that the electron-contributing moiety on A stabilizes the compounds of the invention such that they are less susceptible to hydrolysis from the rest of the compound. For example, the compound β-1′-5-methyl-nicotinamide-2′-deoxyribose (established as an effective inhibitor of CD38 in Example 1) was compared with β-1′-nicotinamide-2′-deoxyribose in its ability to resist solution hydrolysis. […] This difference in chemical stability means that β-1′-nicotinamide-2′-deoxyribose is 50% depleted from solution in 2 hours, whereas β-1′-5-methyl-nicotinamide-2′-deoxyribose is not hydrolyzed by 50% until 12 hours. This improved chemical stability improves the value of the compound, since it is available for action for longer periods of time in biological systems due to resistance to hydrolytic breakdown.

[6] = biological target: T1, human CD38; assay: Off-rate measurement: recovery of inhibited CD38 in excess NGD+; assay type: biochemical; parameters: The soluble domain of human CD38 catalyzes the conversion of NAD^+ to cyclic-ADP-ribose; details: 19° C.
Description: Off-Rate Measurement. 500 nM CD38 in 50 mM potassium phosphate pH 7.2 was incubated with 15 μM inhibitor for 30 min at room temperature. 5 μL of the enzyme inhibitor solution was added to a cuvette containing 1 mL reaction of 50 mM potassium phosphate pH 7.5 containing 300 μM NGD^+ pre-chilled to 19° C. Production of […] was determined by monitoring […] absorbance. The absorbance was fit to the equation A(t)=vt+(b−v) (1−exp(−kt))k+A0 where A(t) is the absorbance, k is the rate constant of recovery, b is the initial rate, v is the final rate and A0 is the initial absorbance. A control lacking inhibitor but in all other respects identical was also run.
Recovery from Inhibition. […] The solution 295 nm absorbance is monitored spectrophotometrically to assay conversion of NGD^+ to cGDPR as a consequence of regain of CD38 catlytic activity. […] The absorbance curves with the same equation used for slow-onset: At=vit+(vi−vf)(1−exp(−kt))/k+A0 where At is absorbance, vi is initial velocity, vf is final velocity, t is time in s, k is the rate of the recovery rate constant and A0 is the absorbance of the sample at initial time. The rate constant for the recovery phase was obtained from the average value of k determined from the separate fits. The value of koff for 1 was determined to be 1.5×10^−5 s^−1 and for 2 was determined to be 2.5×10^−5 s^−1.

[7] = biological target: T1, human CD38; assay: CD38-catalyzed base-exchange reaction of 2 with nicotinamide to form 1 (HPLC); assay type: biochemical; parameters: The soluble domain of human CD38 catalyzes the conversion of NAD^+ to cyclic-ADP-ribose
Description: Base-exchange reaction. […] These reactions were run separately in autosampler tubes held at 19° C. in a temperature regulated autosampler and assayed by multiinjection HPLC using 5 mM K2PO4H pH 5.0 and 2.5% MeOH as eluant. The quantity of 2 reacted and the quantity of 1 formed versus time was determined by integrations of the peaks for 1 and 2 with comparison to standards.

[8] = biological target: T1, human CD38; details: read-out: Apparent Km for nicotinamide rescue of CD38 activity; CD38 preinhibited by 2
Description: 10 mL CD38 (1 μM) in K2PO4H was incubated with 2 (10 μM) for 30 minutes at room temperature and subsequently placed on ice. […] To a two syringe Applied Photophysics spectrophotometer in fluorescence mode was added inhibited enzyme to one syringe and NGD^+ solution to the other. Fluorescence was used to monitor cGDPR formation and the total fluorescence curves fit using the activity recovery equation. F(t)=vt+(b−v)(1−exp(−kt))/k+F0 where k is the observed rate constant, b is the initial rate, v is the final rate and F0 is the initial absorbance.
A stopped flow, two syringe fitted spectrophotometer was used to perform the experiments. The fluorescence of cGDPR was measured as a function of time to generate curves that contain an exponential and a linear phase prior to substrate exhaustion. These curves were fit to the equation Ft=vft+(vi−vf)(1−exp(−kt))/k+F0 as previously defined.

[9] = biological target: T2, CD38; details: read-out: Apparent Km for nicotinamide rescue; CD38 inactivated by ara-F-NMN+; cited from earlier work
[10] = 10 mM potassium phosphate, pH 6.5, 25° C.
[11] = 100 μM NGD+ for 1, 40 μM NGD+ for 2, 50 mM potassium phosphate pH 7.2, read-out: Ki (competitive inhibition, from initial rates)
[12] = calculated from the kinetic parameters, read-out: Ki(total) = (koff/kon)*Ki, effective dissociation constant

NC(=O)c1ccc[n+](C2CC(O)C(CO)O2)c1 (single isomer, unassigned) [α isomer of 1]
Inhibition of CD38 conversion of NGD+ to cGDPR [1]: did not inhibit

Cc1cc(C(N)=O)c[n+](C2CC(O)C(CO)O2)c1 (single isomer, unassigned) [α isomer of 2]
Inhibition of CD38 conversion of NGD+ to cGDPR [1]: did not inhibit

NC(=O)c1ccc[n+]([C@@H]2O[C@H](COP(=O)([O-])OP(=O)(O)OC[C@H]3O[C@@H](n4cnc5c(N)ncnc54)[C@H](O)[C@@H]3O)[C@@H](O)[C@H]2O)c1 [NAD^+, nicotinamide adenine dinucleotide]
Km [2]: 15 µM

NC(=O)c1ccc[n+]([C@@H]2O[C@H](COP(=O)([O-])OP(=O)(O)OC[C@H]3O[C@@H](n4cnc5c(=O)[nH]c(N)nc54)[C@H](O)[C@@H]3O)[C@@H](O)[C@H]2O)c1 [NGD^+, nicotiramide guanine dinucleotide]
Km [2]: 2.5 µM

NC(=O)c1ccc[n+]([C@@H]2O[C@H](COP(=O)(O)O)[C@@H](O)[C@H]2O)c1 [NMN^+]
Km [2]: 150 µM

[3H]C1[C@H]([n+]2cccc(C(N)=O)c2)O[C@H](CO)[C@H]1O (stereo partly shown) [[2-^3H]-1, [2′-^3H]Nicotinamide deoxyriboside]
Rate constant of radiochemical labeling of CD38 (kchem) [3]: 0.01 s⁻¹

NC(=O)c1ccc[n+]([C@@H]2O[C@H](COP(=O)([O-])OP(=O)(O)OC[C@H]3O[C@@H](n4cnc5c(N)ncnc54)[C@H](O)[C@@H]3O)[C@@H](O)[C@H]2F)c1 [ara-F-NAD^+]
Ki [4]: 169 nM

NC(=O)c1ccc[n+]([C@@H]2O[C@H](COP(=O)(O)O)C(O)C2F)c1 (stereo partly shown) [ara-F-NMN^+]
Ki [4]: 61 nM

NC(=O)c1ccc[n+]([C@H]2C[C@H](O)[C@@H](CO)O2)c1 [inhibitor 1, β-nicotinamide-2′-deoxyriboside]
Rate constant for solution hydrolysis [5, 10]: 9.6e-05 s⁻¹
Time to 50% depletion from solution by hydrolysis [5]: 2 h
Ki [1, 11]: 1200 nM
Ki [1, 12]: 4.5 nM
koff (rate constant of recovery from inhibition) [6]: ~2e-05 s⁻¹
Rate constant of radiochemical labeling of CD38 (kchem) [3]: 0.01 s⁻¹

Cc1cc(C(N)=O)c[n+]([C@H]2C[C@H](O)[C@@H](CO)O2)c1 [inhibitor 2, β-5-methyl-nicotinamide-2′-deoxyriboside]
Decrease in the rate of hydrolysis versus β-1′-nicotinamide-2′-deoxyribose (factor) [5, 10]: 6
Rate constant for solution hydrolysis [5, 10]: 1.5e-05 s⁻¹
Time to 50% depletion from solution by hydrolysis [5]: 12 h
Ki [1, 11]: 4000 ± 500 nM
Ki [1, 12]: 12.5 nM
koff (rate constant of recovery from inhibition) [6]: ~2e-05 s⁻¹
kcat of base exchange (2 to 1) ([7]; 75 μM 2, 1 μM CD38, nicotinamide 0-40 mM, 19° C.): 0.007 s⁻¹

OC[C@H]1O[C@@H]([n+]2ccccc2)C[C@@H]1O [inhibitor 3, β-pyridyl-deoxyriboside]
Inhibition of CD38 conversion of NGD+ to cGDPR [1]: did not inhibit

NC(=O)c1cccnc1 [nicotinamide]
Km [8]: 2400 µM
Km [9]: 17000 µM
Km ([7]; read-out: Km of nicotinamide for steady state base exchange, 75 μM 2, 1 μM CD38, 19° C.): 920 µM
